Literature values as cited in patent US20070196488A1, “Oral matrix formulations comprising licarbazepine” (priority 2004, published 2007).

System: epilepsy
Conditions: racemate compared with both pure enantiomers

For `NC(=O)N1c2ccccc2CC(O)c2ccccc21` (racemic) [Licarbazepine, 10,11-dihydro-10-hydroxy-5H-dibenz[b,f]azepine-5-carboxamide], the efficacy against epilepsy is given as “equal efficacy”.
